Experiments:
ECHCG [1] = experiment: Post-emergence herbicidal action against ECHCG; assay type: in vivo, Echinochloa crus-galli; conditions: dosage 20 g/ha
Summary of the method: (§1)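 Herbicidal action is a visual percentage rating (0% = as untreated control, 100% = plants dead) made roughly 3 weeks after treatment. Plants were grown in sandy loam in the greenhouse and treated at the one-leaf stage, 2 to 3 weeks post-sowing. Treatment was a foliar spray of wettable-powder or emulsion-concentrate formulations at 600 to 800 l/ha water plus 0.2% wetting agent.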

DIGSA [2] = experiment: Post-emergence herbicidal action against DIGSA; assay type: in vivo, Digitaria sanguinalis; conditions: 20 g/ha
Summary of the method: as §1

SETVI [3] = experiment: Pre-emergence herbicidal action against SETVI; assay type: in vivo, Setaria viridis
Summary of the method: (§2)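 Sandy loam pots, seeds covered with soil, then surface-treated with WP or EC formulations at 600–800 l/ha water plus 0.2% wetting agent. Greenhouse, 3 weeks. Percent damage vs untreated controls.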

STEME [4] = experiment: Pre-emergence herbicidal action against STEME; assay type: in vivo, Stellaria media
Summary of the method: as §2

ALOMY [5] = experiment: Pre-emergence herbicidal action against ALOMY; assay type: in vivo, Alopecurus myosuroides; conditions: 80 g/ha, pre-emergence, scored visually after 3 weeks vs untreated controls (100% = plants have died, 0% = like control plants)
Summary of the method: as §2

ALOMY [6] = experiment: Post-emergence herbicidal action against ALOMY; assay type: in vivo, Alopecurus myosuroides; conditions: dosage 20 g/ha, visual assessment about 3 weeks after treatment vs untreated controls
Summary of the method: as §1

SETVI [7] = experiment: Post-emergence herbicidal action against SETVI; assay type: in vivo, Setaria viridis
Summary of the method: as §1

DIGSA [8] = experiment: Pre-emergence herbicidal action against DIGSA; assay type: in vivo, Digitaria sanguinalis; conditions: dosage 80 g/ha
Summary of the method: as §2

VIOTR [9] = experiment: Post-emergence herbicidal action against VIOTR; assay type: in vivo, Viola tricolor; conditions: 20 g/ha
Summary of the method: as §1

AMARE [10] = experiment: Post-emergence herbicidal action against AMARE; assay type: in vivo, Amaranthus retroflexus; conditions: 20 g/ha, visual assessment about 3 weeks after treatment, 100% = plants have died, 0% = like control plants
Summary of the method: as §1

ABUTH [11] = experiment: Pre-emergence herbicidal action against ABUTH; assay type: in vivo, Abutilon theophrasti
Summary of the method: as §2

AMARE [12] = experiment: Pre-emergence herbicidal action against AMARE; assay type: in vivo, Amaranthus retroflexus
Summary of the method: as §2

ABUTH [13] = experiment: Post-emergence herbicidal action against ABUTH; assay type: in vivo, Abutilon theophrasti; conditions: visual assessment about 3 weeks after treatment vs untreated controls
Summary of the method: as §1

STEME [14] = experiment: Post-emergence herbicidal action against STEME; assay type: in vivo, Stellaria media
Summary of the method: as §1

MATIN [15] = experiment: Pre-emergence herbicidal action against MATIN; assay type: in vivo, Matricaria inodora
Summary of the method: as §2

MATIN [16] = experiment: Post-emergence herbicidal action against MATIN; assay type: in vivo, Matricaria inodora
Summary of the method: as §1

HORMU = experiment: Pre-emergence herbicidal action against HORMU; assay type: in vivo, Hordeum murinum; conditions: 80 g/ha, pre-emergence
From the text: Seeds of monocotyledonous and dicotyledonous weed plants and crop plants are laid out in sandy loam soil in wood-fiber pots and covered with soil. The compounds of the invention, formulated in the form of wettable powders (WP) or as emulsion concentrates (EC), are then applied to the surface of the covering soil in the form of an aqueous suspension or emulsion at a water application rate equivalent to 600 to 800 l/ha, with addition of 0.2% wetting agent. After the treatment, the pots are placed in a greenhouse and kept under good growth conditions for the trial plants. The damage to the test plants is scored visually after a test period of 3 weeks by comparison with untreated controls (herbicidal activity in percent (%): 100% activity=the plants have died, 0% activity=like control plants). […] The tables below illustrate, in an illustrative manner, the post-emergence herbicidal action of the compounds of the invention, the herbicidal activity being stated in percent.

ECHCG [17] = experiment: Pre-emergence herbicidal action against ECHCG; assay type: in vivo, Echinochloa crus-galli
Summary of the method: as §2

VIOTR [18] = experiment: Pre-emergence herbicidal action against VIOTR; assay type: in vivo, Viola tricolor
Summary of the method: as §2

AVEFA = experiment: Pre-emergence herbicidal action against AVEFA; assay type: in vivo, Avena fatua; conditions: pre-emergence
Summary of the method: as §2

POLCO = experiment: Pre-emergence herbicidal action against POLCO; assay type: in vivo, Polygonum convolvulus; conditions: Fallopia convolvulus, 504 h
Summary of the method: as §2

PHBPU = experiment: Post-emergence herbicidal action against PHBPU; assay type: in vivo, Pharbitis purpurea; conditions: Ipomoea purpurea, 504 h
Summary of the method: as §1

[19] = 80 g/ha, scored visually after 3 weeks vs untreated controls (100% = plants have died, 0% = like control plants)
[20] = Tripleurospermum inodorum, 504 h, dosage 20 g/ha

Cc1nnc(NC(=O)c2ccc(C(F)F)c(C(=O)NC3CC3)c2Cl)o1 [Example 6-124]
Post-emergence action against ECHCG in % (ECHCG [1]): 80%
Post-emergence action against DIGSA (DIGSA [2]): 90%
Pre-emergence action against SETVI in % (SETVI [3]; dosage 20 g/ha): 80%
Pre-emergence action against SETVI in % (SETVI [3]; dosage 80 g/ha): 100%
Pre-emergence action against STEME in % (STEME [4]; dosage 20 g/ha): 80%
Pre-emergence action against STEME in % (STEME [4]; dosage 80 g/ha): 90%
Pre-emergence action against ALOMY (herbicidal activity) (ALOMY [5]): 90%
Post-emergence action against ALOMY in % (ALOMY [6]): 90%
Post-emergence action against SETVI in % (SETVI [7]; dosage 5 g/ha): 80%
Post-emergence action against SETVI in % (SETVI [7]; dosage 20 g/ha): 90%
Pre-emergence action against DIGSA in % (DIGSA [8]): 100%
Post-emergence action against VIOTR in % (VIOTR [9]): 100%
Post-emergence action at 20 g/ha against AMARE in % (AMARE [10]): 100%
Pre-emergence action against ABUTH (herbicidal activity) (ABUTH [11]; [19]): 100%
Pre-emergence action against ABUTH (herbicidal activity in percent) (ABUTH [11]; dosage 20 g/ha, scored visually after 3 weeks vs untreated controls, 100% = plants have died, 0% = like control plants): 100%
Pre-emergence action against AMARE in % (AMARE [12]; 20 g/ha, scored visually after 3 weeks vs untreated controls, 100% = plants have died, 0% = like control plants): 100%
Pre-emergence action against AMARE in % (AMARE [12]; [19]): 100%
Post-emergence action against ABUTH in % (ABUTH [13]; dosage 5 g/ha): 80%
Post-emergence action against ABUTH in % (ABUTH [13]; dosage 20 g/ha): 80%
Post-emergence action against STEME in % (STEME [14]; 20 g/ha): 90%
Post-emergence action against STEME in % (STEME [14]; dosage 5 g/ha): 90%
Pre-emergence action against MATIN in % (MATIN [15]; dosage 20 g/ha): 90%
Pre-emergence action against MATIN in % (MATIN [15]; dosage 80 g/ha): 100%
Post-emergence action against MATIN in % (MATIN [16]; dosage 20 g/ha): 80%
Pre-emergence action against HORMU in % (HORMU): 80%
Pre-emergence action against ECHCG in % (ECHCG [17]; 20 g/ha): 80%
Pre-emergence action against ECHCG in % (ECHCG [17]; 80 g/ha): 100%
Pre-emergence action against VIOTR in % (VIOTR [18]; dosage 80 g/ha): 100%
Pre-emergence action against AVEFA in % (AVEFA; 80 g/ha): 90%

CCCn1nnnc1NC(=O)c1ccc(C(F)(F)F)c(C(=O)NCC)c1C [Example 3-26]
pest or weed control at 20 g/ha (POLCO; dosage 20 g/ha): 80%
pest or weed control at 80 g/ha (POLCO; dosage 80 g/ha): 90%
pest or weed control at 20 g/ha (STEME [4]; Stellaria media, 504 h, dosage 20 g/ha): 80%
pest or weed control at 80 g/ha (STEME [4]; Stellaria media, 504 h, dosage 80 g/ha): 100%
pest or weed control at 80 g/ha (ALOMY [5]; Alopecurus myosuroides, 504 h): 80%
pest or weed control at 20 g/ha (ALOMY [6]; Alopecurus myosuroides, 504 h): 80%
pest or weed control at 80 g/ha (DIGSA [8]; Digitaria sanguinalis, 504 h): 100%
pest or weed control at 20 g/ha (VIOTR [9]; Viola tricolor, 504 h): 90%
pest or weed control at 20 g/ha (AMARE [10]; Amaranthus retroflexus, 504 h): 90%
pest or weed control at 80 g/ha (ABUTH [11]; Abutilon theophrasti, 504 h, 80 g/ha, scored visually after 3 weeks vs untreated controls (100% = plants have died, 0% = like control plants)): 100%
pest or weed control at 20 g/ha (ABUTH [11]; Abutilon theophrasti, 504 h, dosage 20 g/ha, scored visually after 3 weeks vs untreated controls, 100% = plants have died, 0% = like control plants, read-out: Pre-emergence action against ABUTH (herbicidal activity in percent)): 100%
pest or weed control at 20 g/ha (AMARE [12]; Amaranthus retroflexus, 504 h, 20 g/ha, scored visually after 3 weeks vs untreated controls, 100% = plants have died, 0% = like control plants): 100%
pest or weed control at 80 g/ha (AMARE [12]; Amaranthus retroflexus, 504 h, 80 g/ha, scored visually after 3 weeks vs untreated controls, 100% = plants have died, 0% = like control plants): 100%
pest or weed control at 5 g/ha (ABUTH [13]; Abutilon theophrasti, 504 h, dosage 5 g/ha): 80%
pest or weed control at 20 g/ha (ABUTH [13]; Abutilon theophrasti, 504 h, dosage 20 g/ha): 90%
pest or weed control at 20 g/ha (STEME [14]; Stellaria media, 504 h, 20 g/ha): 90%
pest or weed control at 5 g/ha (PHBPU; dosage 5 g/ha): 80%
pest or weed control at 20 g/ha (PHBPU; dosage 20 g/ha): 90%
pest or weed control at 20 g/ha (MATIN [15]; [20]): 90%
pest or weed control at 80 g/ha (MATIN [15]; Tripleurospermum inodorum, 504 h, dosage 80 g/ha): 100%
pest or weed control at 5 g/ha (MATIN [16]; Tripleurospermum inodorum, 504 h, dosage 5 g/ha): 90%
pest or weed control at 20 g/ha (MATIN [16]; [20]): 90%
pest or weed control at 80 g/ha (HORMU; Hordeum murinum, 504 h): 80%
pest or weed control at 20 g/ha (VIOTR [18]; Viola tricolor, 504 h, dosage 20 g/ha): 100%
pest or weed control at 80 g/ha (VIOTR [18]; Viola tricolor, 504 h, dosage 80 g/ha): 100%
pest or weed control at 80 g/ha (AVEFA; Avena fatua, 504 h, 80 g/ha): 100%
pest or weed control at 20 g/ha (AVEFA; Avena fatua, 504 h, 20 g/ha, scored visually after 3 weeks, 100% = plants have died, 0% = like control plants): 80%

— patent US12655116B2, “Substituted isophthalic acid diamides” (Bayer Aktiengesellschaft, priority 2020, dated 2026)
